Data from US11291625B2, “Antimicrobial compositions and methods for reducing microbial contamination” (PolyVation B.V., priority 2015, dated 2022).

Test: BKC / BEZ release assay from polymer film with aqueous BPB solution
Format: physicochemical
Settings: for release from 0.45% biocide coating without copolymer upon addition of the BPB solution: reference, no polymer
Protocol: The different 5 wt % polymer formulations were supplemented with 0.45 wt % BKC and 20 μl coated to the first well of each row of a 96-well plate. After evaporation of the solvent (2-propanol), 100 μl of an aqueous BPB ([…]) solution (25×10^−3 mmol/L) was added to the coated wells and the plate was incubated for 30 seconds at room temperature. Next, the aqueous phase was removed from the well and the formation of blue BPB-BKC complexes was assessed by visual inspection. This process was repeated until blue BPB-BKC complexes were no longer observed, and the number of repeated BPB incubation steps was recorded.
The slow release properties of the PVPM20, PVPMDM, PVPMEM and PVPDDM co-polymer formulations were verified in a BKC and a BEZ release test that were performed in 96-well plates. The different polymer formulations (i.e. PVPM20-85:15, PVPM20-80:20, PVPM20-65:35, PVPMDM-60:40, PVPMDM-75:25, PVPMEM-80:20 and PVPDDM-80:20 in 2-propanol at 2.5 wt % were supplemented with 0.45 wt % BKC or BEZ. 20 μl was coated to the first well of each row of a 96-well plate. After evaporation of the 2-propanol solvent, 100 μl of an aqueous BPB solution (25×10^−3 mmol/L) was added to the coated wells and the plate was incubated for 30 seconds at room temperature. BPB forms a blue complex with free BKC and free BEZ when it is released from the polymer film into an aqueous solution. Of note, the BPB-BKC or BPB-BEZ complex is blue, whereas the BPB solution itself is purple (20). Next, the aqueous phase was removed from the well and the formation of blue BPB-BKC or BPB-BEZ complexes was assessed by visual inspection. This process was repeated until blue BPB-BKC complexes were no longer observed, and the number of repeated BPB incubation steps was recorded.
The number of cycles needed to release readily detectable amounts of BKC or BEZ was used as a measure to assess the BKC-retaining or BEZ-retaining properties of the different polymer formulations.

| Compound | Test2 (BEZ): Number of incubations after which BEZ was no longer detectable (0.45 wt % BEZ, 30 seconds incubations with aqueous BPB solution, room temperature) | release from 0.45% biocide coating without copolymer upon addition of the BPB solution | Test1 (BKC): Number of incubations after which BKC was no longer detectable (0.45 wt % BKC, 30 seconds incubations with aqueous BPB solution, room temperature) |
| --- | --- | --- | --- |
| CC(C)(C)CC(C)(C)c1ccc(OCCOCC[N+](C)(C)Cc2ccccc2)cc1 [BEZ only, benzethonium chloride] | 1x | dissolved instantaneously | – |
| benzalkonium chloride [BKC only] | – | dissolved instantaneously | 1x |
